Our source for the IC50 values is patent publication US6215002A, “Pyrrolopyrrolone derivatives as inhibitors of neutrophil elastase” (priority 1996, dated 2001).

Molecules are shown by their SMILES. pIC50: −log10 of the molar value. Where a name gives a salt, the structure may show the parent alone.

In general, pIC50 refers to the negative decadic logarithm of the IC50, by convention in mol/L.

The test addresses T1, human neutrophil elastase (Homo sapiens, UniProt P08246).
T1 sequence (P08246 30-267): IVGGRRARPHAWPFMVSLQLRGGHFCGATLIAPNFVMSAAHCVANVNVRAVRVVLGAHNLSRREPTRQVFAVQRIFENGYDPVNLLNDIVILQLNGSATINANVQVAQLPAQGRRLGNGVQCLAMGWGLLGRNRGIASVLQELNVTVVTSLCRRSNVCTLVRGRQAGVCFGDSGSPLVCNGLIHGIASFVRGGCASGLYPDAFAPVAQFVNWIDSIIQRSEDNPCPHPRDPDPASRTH
As to the kind of experiment: In vitro assay of human neutrophil elastase (HNE). The format is biochemical. Particulars: 118 nM purified human neutrophil elastase, pH 8.6, 15 min incubation at 30° C., MeO-succinyl-alanyl-alanyl-prolyl-valyl-p-nitroanilide substrate; read-out: HNE IC50. How it is done: In Vitro Assays of Human Neutrophil Elastase
118 nM purified human neutrophil elastase
Suitable concentrations of compound under test diluted with water from a 10 mM stock solution in dimethylsulphoxide. Values above are final concentrations after the addition of substrate solution (see below).
The mixture above is incubated for fifteen minutes at 30° C. at which time the remaining elastase activity is measured for 10 minutes in a BioTek 340i plate-reader, after the addition of 0.6 mM MeO-succinyl-alanyl-alanyl-prolyl-valyl-p-nitroanilide. The rate of increase in absorbance at 405 nm is proportional to elastase activity. Enzyme activity is plotted against concentration of inhibitor and an IC50 determined using curve fitting software.
1. The compounds were tested in the in vitro elastase test described earlier in the description.
For the compound `CCC[C@H]1C(=O)N(S(C)(=O)=O)[C@H]2CCN(S(=O)(=O)Cc3cccc(-c4nnn[nH]4)c3)[C@H]12` (relative stereo) [Example 27, rel-(3R,3aR,6aS)-1-Methanesulfonyl-3-propyl-4-[3-(1H-tetrazol-5-yl)-phenylmethanesulfonyl]-hexahydro-pyrrolo[3,2-b]pyrrol-2-one], the pIC50 was 7.26. For `CCC[C@H]1C(=O)N(S(C)(=O)=O)[C@H]2CCN(C(C)=O)[C@H]12` (relative stereo) [Example 28, rel-(3R,3aR,6aS)-4-Acetyl-1-methanesulfonyl-3-propyl-hexahydro-pyrrolo[3,2-b]pyrrol-2-one], the pIC50 is 7.19. As for `CCC[C@H]1C(=O)N(S(C)(=O)=O)[C@H]2CCN(C(=O)CCN3CCCCC3)[C@H]12` (relative stereo) [Example 30, rel-(3R,3aR,6aS)-1-Methanesulfonyl-4-(3-piperidin-1-yl-propionyl)-3-propyl-hexahydro-pyrrolo[3,2-b]pyrrol-2-one hydrochloride], the figure is 6.72; as for `CCC[C@H]1C(=O)N(S(=O)(=O)c2cccc3ccccc23)[C@H]2CCN(S(C)(=O)=O)[C@H]12` (relative stereo) [Example 31, rel-(3R,3aR,6aS)-4-Methanesulfonyl-1-(naphthalene-1-sulfonyl)-3-propyl-hexahydro-pyrrolo[3,2-b]pyrrol-2-one], 7.10.

Turning to `CCC[C@H]1C(=O)N(S(=O)(=O)c2cccc3ccccc23)[C@H]2CCN(S(=O)(=O)Cc3cccc(-c4nn[nH]n4)c3)[C@H]12` (relative stereo) [Example 32, rel-(3R,3aR,6aS)-1-(Naphthalene-1-sulfonyl)-3-propyl-4-[3-(1H-tetrazol-5-yl)-phenylmethanesulfonyl]-hexahydro-pyrrol[3,2-b]pyrrol-2-one], the pIC50 is 6.54.

Turning to `CCC[C@H]1C(=O)N(S(=O)(=O)/C=C/c2ccccc2)[C@H]2CCN(S(=O)(=O)Cc3ccccc3)[C@H]12` (relative stereo) [Example 33, rel-(3R,3aR,6aS)-1-(2-Phenyl-(E)-ethenesulfonyl)-4-phenylmethanesulfonyl-3-propyl-hexahydro-pyrrolo[3,2-b]pyrrol-2-one], the pIC50 is 6.34. In the case of `CCC[C@H]1C(=O)N(S(=O)(=O)c2ccc3ccccc3c2)[C@H]2CCN(S(=O)(=O)Cc3ccccc3)[C@H]12` (relative stereo) [Example 34, rel-(3aR,6R,6aS)-1-(Naphthalene-2-sulfonyl)-4-phenylmethanesulfonyl-3-propyl-hexahydro-pyrrolo[3,2-b]pyrrol-2-one] it was 7.28; in that of `CC[C@H]1C(=O)N(S(=O)(=O)c2ccc3ccccc3c2)[C@H]2CCN(S(=O)(=O)CCCN3CCOCC3)[C@H]12` (relative stereo) [Example 35, rel-(3R,3aR,6aS)-3-Ethyl-4-(3-morpholin-4-yl)-propane-1-sulfonyl)-1-(naphthalene-2-sulfonyl)-hexahydro-pyrrolo[3,2-b]pyrrol-2-one meso-tartrate], 6.16. In the case of `CCC[C@H]1C(=O)N(S(=O)(=O)c2cccc3ccccc23)[C@H]2CCN(S(=O)(=O)CCCN3CCOCC3)[C@H]12` (relative stereo) [Example 36, rel-(3R,3aR,6aS)-4-(3-Morpholin-4-yl-propane-1-sulfonyl)-1-(naphthalene-1-sulfonyl)-3-propyl-hexahydro-pyrrolo[3,2-b]pyrrol-2-one] it was 6.90.

In the case of `C=CC[C@H]1C(=O)N(S(=O)(=O)c2cccc(S(=O)(=O)N(C)C)c2)[C@H]2CCN(C(=O)OCc3ccccc3)[C@H]12` (relative stereo) [Example 37, rel-(3aS,6R,6aR)-6-Allyl-4-(3-dimethylsulfamoyl-benzenesulfonyl)-5-oxo-hexahydro-pyrrolo[3,2-b]pyrrole-1-carboxylic acid benzyl ester], the pIC50 was 6.86. As for `C=CC[C@H]1C(=O)N(S(=O)(=O)c2cccc([N+](=O)[O-])c2)[C@H]2CCN(C(=O)OCc3ccccc3)[C@H]12` (relative stereo) [Example 38, rel-(3aS,6R,6aR)-6-Allyl-4-(3-nitro-benzenesulfonyl)-5-oxo-hexahydro-pyrrolo[3,2-b]pyrrole-1-carboxylic acid benzyl ester], the figure is 6.69; as for `CCC[C@H]1C(=O)N(S(=O)(=O)c2ccc3ccccc3c2)[C@H]2CCN(C(=O)CCCN3CCCCC3)[C@H]12` (relative stereo) [Example 39, rel-(3R,3aR,6aS)-1-(Naphthalene-2-sulfonyl)-4-(4-piperidin-l-yl-butyryl)-3-propyl-hexahydro-pyrrolo[3,2-b]pyrrol-2-one tartrate], 6.72. Consider `CCC[C@H]1C(=O)N(S(=O)(=O)c2ccc3ccccc3c2)[C@H]2CCN(C(=O)CCCCCN3CCCCC3)[C@H]12` (relative stereo) [Example 40, rel-(3R,3aR,6aS)-1-(Naphthalene-2-sulfonyl)-4-(6-piperidin-1-yl-hexanoyl)-3-propyl-hexahydro-pyrrolo[3,2-b]pyrrol-2-one tartrate], for which the pIC50 was 7.30. For the compound `C=CC[C@H]1C(=O)N(S(=O)(=O)c2csc3ccccc23)[C@H]2CCN(C(=O)OCc3ccccc3)[C@H]12` (relative stereo) [Example 41, rel-(3aS,6R,6aR)-6-Allyl-4-(benzo[b]thiophene-3-sulfonyl)-5-oxo-hexahydro-pyrrolo[3,2-b]pyrrole-1-carboxylic acid benzyl ester], the pIC50 was 7.08. For `C=CC[C@H]1C(=O)N(S(=O)(=O)c2cc3ccccc3s2)[C@@H]2CCN(C(=O)OCc3ccccc3)[C@H]21` (relative stereo) [Example 42, rel-(3aR,6R,6aS)-6-Allyl-4-(benzo[b]thiophene-2-sulfonyl)-5-oxo-hexahydro-pyrrolo[3,2-b]pyrrole-1-carboxylic acid benzyl ester], the pIC50 was 7.11.

On to `C=CC[C@H]1C(=O)N(S(=O)(=O)CCc2ccccc2)[C@H]2CCN(C(=O)OCc3ccccc3)[C@H]12` (relative stereo) [Example 43, rel-(3aS,6R,6aR)-6-Allyl-5-oxo-4-(2-phenyl-ethanesulfonyl)-hexahydro-pyrrolo[3,2-b]pyrrole-1-carboxylic acid benzyl ester], for which the pIC50 is 6.39. As to `C=CC[C@H]1C(=O)N(S(=O)(=O)/C=C/c2ccccc2)[C@H]2CCN(C(=O)OCc3ccccc3)[C@H]12` (relative stereo) [Example 44, rel-(3aS,6R,6aR)-6-Allyl-5-oxo-4-(2-phenyl-(E)-ethenesulfonyl)-hexahydro-pyrrolo[3,2-b]pyrrole-1-carboxylic acid benzyl ester], the pIC50 is 7.03. As for `C=CC[C@H]1C(=O)N(S(=O)(=O)c2ccccc2)[C@H]2CCN(C(=O)OCc3ccccc3)[C@H]12` (relative stereo) [Example 45, rel-(3aS,6R,6aR)-6-Allyl-4-benzenesulfonyl-5-oxo-hexahydro-pyrrolo[3,2-b]pyrrole-1-carboxylic acid benzyl ester], the figure is 6.27. Turning to `CCC[C@H]1C(=O)N(S(C)(=O)=O)[C@H]2CCN(C(=O)CCN3CCOCC3)[C@H]12` (relative stereo) [Example 46, rel-(3R,3aR,6aS)-1-Methanesulfonyl-4-(3-morpholin-4-yl-propionyl)-3-propyl-hexahydro-pyrrolo[3,2-b]pyrrol-2-one], the pIC50 was 6.84. On to `CCC[C@H]1C(=O)N(S(C)(=O)=O)[C@H]2CCN(C(=O)CCCN3CCOCC3)[C@H]12` (relative stereo) [Example 47, rel-(3R,3aR,6aS)-1-Methanesulfonyl-4-(4-morpholin-4-yl-butyryl)-3-propyl-hexahydro-pyrrolo[3,2-b]pyrrol-2-one], for which the pIC50 was 6.96. `CCC[C@H]1C(=O)N(S(=O)(=O)c2ccc3ccccc3c2)[C@H]2CCN(C(=O)CCc3ccccn3)[C@H]12` (relative stereo) [Example 48, rel-(3R,3aR,6aS)-1-(Naphthalene-2-sulfonyl)-3-propyl-4-(3-pyridin-2yl-propionyl)-hexahydro-pyrrolo[3,2-b]pyrrol-2-one]: the pIC50 was 6.91.

With `C=CC[C@H]1C(=O)N(S(=O)(=O)c2cccc3cccnc23)[C@H]2CCN(C(=O)OCc3ccccc3)[C@H]12` (relative stereo) [Example 49, rel-(3aS,6R,6aR)-6-Allyl-5-oxo-4-(quinoline-8-sulfonyl)-hexahydro-pyrrolo[3,2-b]pyrrole-1-carboxylic acid benzyl ester], the pIC50 was 6.39. On to `CCC[C@H]1C(=O)N(S(=O)(=O)c2cccc3c2NCCC3)[C@H]2CCN(C(=O)OCc3ccccc3)[C@H]12` (relative stereo) [Example 50, rel-(3aS,6R,6aR)-5-Oxo-6-propyl-4-(1,2,3,4-tetrahydro-quinoline-8-sulfonyl-hexahydro-pyrrolo[3,2-b]pyrrole-1-carboxylic acid benzyl ester], for which the pIC50 is 6.44. In the case of `CCC[C@H]1C(=O)N(S(=O)(=O)c2cccc3cnccc23)[C@H]2CCN(S(C)(=O)=O)[C@H]12` (relative stereo) [Example 51, rel-(3R,3aR,6aS)-1-(Isoquinoline-5-sulfonyl)-4-methanesulfonyl-3-propyl-hexahydro-pyrrolo[3,2-b]pyrrol-2-one] it was 7.26.
